# Experimental data as given in the NIST ThermoML archive (doi:10.1021/je101180r).
# Numbers after ± are expanded uncertainties.
# Settings: Liquid, Ebulliometric method (Recirculating still)
Structure (SMILES),vapor or sublimation pressure (373.7 K) [kPa],vapor or sublimation pressure (384.96 K) [kPa],vapor or sublimation pressure (402.57 K) [kPa],vapor or sublimation pressure (413.74 K) [kPa]
"CN(C)c1ccccc1 [N,N-dimethylaniline]",5.158 ± 0.11,8.041 ± 0.18,,
Cc1cccnc1N [2-amino-3-methylpyridine],,,5.158 ± 0.11,8.041 ± 0.18
